This note sets out measurements from patent US6989384B2, “Antipicornaviral compounds and compositions, their pharmaceutical uses, and materials for their synthesis” (Agouron Pharmaceuticals, Inc., priority 2000, dated 2006).

One series has as its system H1-HeLa cells. In words: Cytotoxicity in mock-infected H1-HeLa cells (XTT). In kind it is cell-based. As to conditions: two days, read-out: Toxicity CC50. As to the method:
(§1) In this cell protection assay, the ability of compounds to protect cells against HRV infection was measured by the XTT dye reduction method, which is described in Weislow et al., J. Natl. Cancer Inst. 1989, vol. 81, 577–586.
(§2) H1-HeLa cells were infected with HRV-14 at a multiplicity of infection (m.o.i.) of 0.13 (virus particles/cell) or mock-infected with medium only. Infected or mock-infected cells were resuspended at 8×10^5 cells per mL, and incubated with appropriate concentrations of the compounds to be tested. Two days later, XTT/PMS was added to test plates and the amount of formazan produced was quantified spectrophotometrically at 450/650 nm. The EC50 value was calculated as the concentration of compound that increased the percentage of formazan production in compound-treated, virus-infected cells to 50% of that produced by compound-free, mock-infected cells. The 50% cytotoxic dose (CC50) was calculated as the concentration of compound that decreased the percentage of formazan produced in compound-treated, mock-infected cells to 50% of that produced by compound-free, mock-infected cells.
(§3) All strains of human rhinovirus (HRV) for use in this assay were purchased from American Type Culture Collection (ATCC), except for HRV serotype-14 (produced from the infectious cDNA clone constructed by Dr. Robert Rueckert, Institute for Molecular Virology, University of Wisconsin, Madison, Wis.). HRV stocks were propagated and viral assays were performed in H1-HeLa cells (ATCC). Cells were grown in minimal essential medium with 10% fetal bovine serum, available from Life Technologies (Gaithersburg, Md.).
(Tetrazolium dyes change colour on reduction, which living cells bring about.)

The next series concerns HRV-14. Description: Antirhinoviral H1-HeLa cell culture assay (cell protection, XTT), HRV-14. Format: cell-based, human rhinovirus. Conditions: read-out: Cell Protection EC50. As for the experimental part:
as §1, §2, §3
(§4) The compounds were tested against control compounds WIN 51711, WIN 52084, and WIN 54954 (obtained from Sterling-Winthrop Pharmaceuticals), Pirodavir (obtained from Janssen Pharmaceuticals), and Pleconaril (prepared according to the method described in Diana et al., J. Med. Chem 1995, vol. 38, 1355). Antiviral data obtained for the test compounds are shown in the Table, where all data are for HRV serotype-14 unless otherwise noted in parentheses.

The subject of another series is HRV-10. In words: Antirhinoviral H1-HeLa cell culture assay (cell protection, XTT), HRV-10. In kind it is cell-based. Conditions: Human rhinovirus sp., HRV10, 48 h, HRV-10, H1-HeLa cells, two days. As for the experimental part:
as §1, §2, §3, §4

Another series concerns HRV-2. In words: Antirhinoviral H1-HeLa cell culture assay (cell protection, XTT), HRV-2. Conditions: Rhinovirus A, HRV2, 48 h, HRV-2, H1-HeLa cells, two days. In kind it is cell-based, human rhinovirus. As for the experimental part:
as §1, §2, §3, §4

Series [1] in a line: Cytotoxicity in mock-infected H1-HeLa cells (XTT). In kind it is cell-based. Conditions: human, two days, read-out: Toxicity CC50. As for the experimental part: as §1, §2, §3
Series [2] deals with T1, rhinovirus 3C protease (HRV-2) (Human rhinovirus 2, UniProt P04936).
T1 construct: Recombinant rhinovirus 3C proteases; made in house
Description: Inhibition of rhinovirus 3C protease activity (FRET assay), HRV-2. In kind it is biochemical. Conditions: read-out: Protease Inhibition kobs/I. As for the experimental part:
Stock solutions (50 mM, in DMSO) of various compounds were prepared; dilutions were in the same solvent. Recombinant rhinovirus 3C proteases (see Birch et al., “Purification of recombinant human rhinovirus 14 3C protease expressed in Escherichia coli,” Protein Expr. Pur. 1995, 6(5), 609–618) from serotypes 14, 16, and 2 were prepared by the following standard chromatographic procedures: (1) ion exchange using Q Sepharose Fast Flow from Pharmacia; (2) affinity chromatography using Affi-Gel Blue from Biorad; and (3) sizing using Sephadex G-100 from Pharmacia. Each assay sample contained 2% DMSO, 50 mM tris pH 7.6, 1 mM EDTA, a test compound at the indicated concentration, approximately 1 μM substrate, and 50–100 nM protease. The kobs/I values were obtained from reactions initiated by addition of enzyme rather than substrate. RVP activity was measured in the fluorescence resonance energy transfer assay. The substrate was (N-terminal) DABCYL-(Gly-Arg-Ala-Val-Phe-Gln-Gly-Pro-Val-Gly)-EDANS. In the uncleaved peptide, the EDANS fluorescence was quenched by the proximal DABCYL group. When the peptide was cleaved, the quenching was relieved, and activity was measured as an increase in fluorescence signal. In the Table, unless otherwise indicated, all data are for rhinovirus 3C protease from HRV serotype-14 (produced from the infectious cDNA clone constructed by Dr. Robert Rueckert, Institute for Molecular Virology, University of Wisconsin, Madison, Wis.). The data in the column designated kobs/[I] were measured from progress curves in enzyme start experiments.

Another series concerns HRV-1A. Description: Antirhinoviral H1-HeLa cell culture assay (cell protection, XTT), HRV-1A. As to conditions: Rhinovirus A, HRV1A, 48 h, H1-HeLa cells, two days. In kind it is cell-based, human rhinovirus. As for the experimental part: as §1, §2, §3, §4
The target of series [3] is T2, rhinovirus 3C protease from HRV serotype-14 (Human rhinovirus 14, UniProt P03303).
T2 construct: Recombinant rhinovirus 3C proteases; made in house
In words: Inhibition of rhinovirus 3C protease activity (FRET assay), HRV-14. In kind it is biochemical. As to conditions: read-out: Protease Inhibition kobs/I. The essentials:
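Recombinant 3C protease (50–100 nM) was assayed in 50 mM tris pH 7.6, 1 mM EDTA, 2% DMSO, with about 1 μM DABCYL-GRAVFQGPVG-EDANS FRET substrate. Cleavage was followed as the rise in fluorescence. kobs/[I] was derived from progress curves of enzyme-initiated reactions.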

The target in series [4] is T3, rhinovirus 3C protease (HRV-16) (Human rhinovirus 16, UniProt Q82122).
T3 construct: Recombinant rhinovirus 3C proteases; made in house
In words: Inhibition of rhinovirus 3C protease activity (FRET assay), HRV-16. Format: biochemical. Conditions: HRV-16 3C protease; progress curves, enzyme start; read-out: Protease Inhibition kobs/I. As to the method: Stock solutions (50 mM, in DMSO) of various compounds were prepared; dilutions were in the same solvent. Recombinant rhinovirus 3C proteases (see Birch et al., “Purification of recombinant human rhinovirus 14 3C protease expressed in Escherichia coli,” Protein Expr. Pur. 1995, 6(5), 609–618) from serotypes 14, 16, and 2 were prepared by the following standard chromatographic procedures: (1) ion exchange using Q Sepharose Fast Flow from Pharmacia; (2) affinity chromatography using Affi-Gel Blue from Biorad; and (3) sizing using Sephadex G-100 from Pharmacia. Each assay sample contained 2% DMSO, 50 mM tris pH 7.6, 1 mM EDTA, a test compound at the indicated concentration, approximately 1 μM substrate, and 50–100 nM protease. The kobs/I values were obtained from reactions initiated by addition of enzyme rather than substrate. RVP activity was measured in the fluorescence resonance energy transfer assay. The substrate was (N-terminal) DABCYL-(Gly-Arg-Ala-Val-Phe-Gln-Gly-Pro-Val-Gly)-EDANS. In the uncleaved peptide, the EDANS fluorescence was quenched by the proximal DABCYL group. When the peptide was cleaved, the quenching was relieved, and activity was measured as an increase in fluorescence signal. […] The data in the column designated kobs/[I] were measured from progress curves in enzyme start experiments.

The target in series [5] is T4, rhinovirus 3C protease (HRV-89) (Human rhinovirus A serotype 89, UniProt P07210).
T4 construct: Recombinant rhinovirus 3C proteases
Description: Inhibition of rhinovirus 3C protease activity (FRET assay), HRV-89. Format: biochemical, human rhinovirus 89. As to conditions: HRV-89 3C protease; progress curves, enzyme start; read-out: Protease Inhibition kobs/I.

[6] abbreviates: HRV-14, H1-HeLa cells, XTT, two days.
The mark [7] stands for this setting: Rhinovirus B, HRV14, H1-HeLa, 48 h.

The term CC50 denotes the concentration that lowers cell viability or growth by half. One may read the EC50 as the concentration that produces a half-maximal response.

Read-outs that look alike come from different tables or passages of the source.

T1 sequence (P04936 1508-1690): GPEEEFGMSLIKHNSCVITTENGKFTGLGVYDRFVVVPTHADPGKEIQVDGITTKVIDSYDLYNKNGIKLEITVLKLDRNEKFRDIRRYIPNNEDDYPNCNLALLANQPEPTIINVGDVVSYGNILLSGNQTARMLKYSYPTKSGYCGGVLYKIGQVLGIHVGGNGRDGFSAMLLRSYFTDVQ
T2 sequence (P03303 1538-1719): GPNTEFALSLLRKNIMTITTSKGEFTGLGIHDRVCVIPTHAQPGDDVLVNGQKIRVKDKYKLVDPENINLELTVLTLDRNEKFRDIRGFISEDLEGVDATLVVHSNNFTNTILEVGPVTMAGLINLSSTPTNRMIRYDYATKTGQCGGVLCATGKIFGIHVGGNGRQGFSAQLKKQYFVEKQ
T4 sequence (P07210 1522-1704): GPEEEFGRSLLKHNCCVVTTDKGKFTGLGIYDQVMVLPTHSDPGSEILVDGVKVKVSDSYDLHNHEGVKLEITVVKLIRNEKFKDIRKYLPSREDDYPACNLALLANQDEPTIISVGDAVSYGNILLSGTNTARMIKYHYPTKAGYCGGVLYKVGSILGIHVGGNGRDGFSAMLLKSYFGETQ
T3 sequence (Q82122 1511-1693): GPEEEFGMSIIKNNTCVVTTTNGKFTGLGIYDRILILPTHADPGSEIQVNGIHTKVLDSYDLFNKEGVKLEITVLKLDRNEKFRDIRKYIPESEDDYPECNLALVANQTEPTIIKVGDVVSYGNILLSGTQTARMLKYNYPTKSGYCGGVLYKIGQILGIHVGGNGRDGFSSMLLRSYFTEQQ

Turning to `Cc1cc(CCCCCCCOc2ccc(C3=N[C@@H](C)CO3)cc2)on1` [WIN 52084, reference compound], in the series on H1-HeLa cells, the CC50 was over 10 µM. Besides, the 50% effective concentration (EC50) in the series with HRV-14 (setting [6]) is 0.07 µM.

As for `CCOC(=O)/C=C/[C@H](C[C@@H]1CCNC1=O)NC(=O)C1=Cc2cc(Cl)ccc2OC1` [Compound 44, 4S-[(6-Chloro-2H-chromene-3-carbonyl)-amino]-5-(2-oxo-pyrrolidin-3S-yl)-pent-2-enoic acid ethyl ester], the EC50 in the series with HRV-10 stood at 0.459 µM; with HRV-2 it was 0.645 µM; in the series with HRV-1A, 5.1 µM; with HRV-14 (setting [7]) it was 0.16 µM. In series [1], the CC50 at 2 days is over 100 µM. For the same compound, the kinact/KI in series [2] stood at 385 M⁻¹ s⁻¹; in series [3], 19700 M⁻¹ s⁻¹; in [4] it was 2200 M⁻¹ s⁻¹; in series [5] it was 800 M⁻¹ s⁻¹.

For the compound `Cc1cc(CCCCCCCOc2ccc(C3=NCCO3)cc2)on1` [WIN 51711, reference compound], the CC50 in the series with H1-HeLa cells is over 60 µM. Further, the EC50 in the series on HRV-14 (setting [6]) is 0.78 µM.

With `CCOC(=O)/C=C/[C@H](C[C@@H]1CCNC1=O)NC(=O)c1ccc2ccc(Br)cc2c1` [Compound 53, 4S-[(7-Bromo-naphthalene-2-carbonyl)-amino]-5-(2-oxo-pyrrolidin-3S-yl)-pent-2-enoic acid ethyl ester], the EC50 was 0.546 µM in the series with HRV-10, 0.422 µM in the series on HRV-2, 4.18 µM in the series with HRV-1A and 0.184 µM in the series on HRV-14 (setting [7]). In addition, the cytotoxic concentration (CC50) at 2 days in [1] is 56.2 µM. Also, the values for the kinact/KI in series [2] and in series [3] were 385 M⁻¹ s⁻¹ and 31400 M⁻¹ s⁻¹, respectively.

In the case of `Cc1cc(CCCCCOc2c(Cl)cc(C3=NCCO3)cc2Cl)on1` [WIN 54954, reference compound], in the series on H1-HeLa cells, the CC50 was over 63 µM. For the same compound, in the series with HRV-14 (setting [6]), the EC50 turned out to be 2.13 µM.
